From US5599974A, “Aldehydic agents for allosteric modification of hemoglobin” (Center for Innovative Technology, priority 1994, dated 1997)

Columns and labels:
human hemoglobin (HbA) = molecular target: T1, human hemoglobin (HbA) (Homo sapiens, UniProt P69905); experiment: Oxygen equilibrium studies of hemoglobin solutions (Hem-O-Scan oxygen dissociation curves); type: biochemical; details: hemoglobin solution; for P50 D (aver.) / ΔP50 (P50 D - P50 C): Hb 2.7 mM; for P50 D (aver.): compound 10 mM (approx. 4:1), 50 mM HEPES pH 7.4, incubated at 4° C. for two hours; for ΔP50 (P50 D - P50 C): compound 10 mM, 50 mM HEPES pH 7.4, positive = right shift
T1 construct: hemoglobin solution
Excerpt: In blood, hemoglobin is in equilibrium between two allosteric structures. In the "T" (for tense) state, hemoglobin is de-oxygenated. In the "R" (for relaxed) state, hemoglobin is oxygenated. An oxygen equilibrium curve can be scanned using well known equipment such as the Aminco™ Hem-o-scan to evaluate the affinity and degree of cooperativity (allosteric action) of hemoglobin. In the scan, the Y-axis plots the percent of hemoglobin oxygenation and the X-axis plots the partial pressure of oxygen in millimeters of mercury (mm Hg). If a horizontal line is drawn from the 50% oxygen saturation point to the scanned curve and a vertical line is drawn from the intersection point of the horizontal line with the curve to the partial pressure X-axis, a value commonly known as the P50 is determined. This is the pressure when the hemoglobin is 50% saturated with oxygen. By comparing the P50 value for treated hemoglobin to the P50 value for untreated normal adult human hemoglobin (HbA) under physiological conditions (i.e., 37° C., pH=7.4, and partial carbon dioxide pressure of 40 mm Hg), the degree of allosteric modification can be determined. When the P50 value for treated hemoglobin is lower than for HbA, a high oxygen affinity hemoglobin is indicated and the curve is said to be "left-shifted". Conversely, when the P50 value for treated hemoglobin is higher than for HbA, a low oxygen affinity hemoglobin is indicated and the curve is said to be "right-shifted".
In the oxygen equilibrium studies, the HbA was further purified by dialysis against pH 8.6. Tris buffer (50 mM, containing 40 mg EDTA/L) to remove any residual A2 hemoglobin. The pure HbA fraction was concentrated by using a Schleicher and Schuell colloidion bag apparatus, available from Schleicher and Schuell, Inc., with HEPES buffer (50 mM, pH 7.4) as the exchange buffer. The Hb concentration was determined by using the cyanmet method. The Hb concentration at this point was usually found to be around 35 g% (approximately 5.4 mM). Less than 5% methemoglobin was noted even after several days at 4° C. Oxygen dissociation curves were recorded on an AMINCO Hem-0-Scan oxygen dissociation analyzer available from Travenol Laboratories.
All compounds were dissolved in 50 mM HEPES buffer, pH 7.4, to give 20 mM of drug solution. The Hb (5.4 mM, in HEPES, pH 7.4) and the test compounds (20 mM) were mixed in 1:1 volume ratio (50μL of Hb+50μL of compound solution) to give final concentrations of 2.7 mM and 10mM, respectively (a molar ratio of test compound to hemoglobin of approximately 4:1). A control experiment was prepared by the addition of 50 μL of Hb to 50 μL of HEPES buffer. The mixtures were incubated at 4° C. for two hours before running the oxygen dissociation curves.

HbA = molecular target: T2, HbA (Homo sapiens, UniProt P69905); experiment: X-ray diffraction analysis of HbA/drug complexes (difference electron-density maps); type: binding; details: HbA tetramer/drug molar ratio 1:5 (TB17 1:10), Schiff base reduced, deoxygenated crystals
T2 construct: co-crystals with compounds
Procedure: Reaction of the drug compounds with HbA, crystallization and X-ray data collection of the HbA/drug complexes were performed according to the procedures of Wireko et al., Proc. Natl. Acad. Sci. USA, 1991, 88, 2209, which is herein incorporated by reference, with some slight modifications. Freshly prepared solutions of the synthesized compounds in potassium phosphate buffer were incubated at oxy HbA tetramer/drug molar ratios of 1:5 or 1:10 for at least 24 hours. Sodium cyanoborohydrie in phosphate buffer was added in 10- to 50-fold molar excess of HbA tetramer to reduce the Schiff's base adduct for at least 24 hours. The deoxygenated HbA/compound complexes were set up for crystallizations following the procedures described in Perutz et al., Crys. Growth, 1968, 2, 54, which is herein incorporated by reference, with some slight modifications. X-ray quality crystals for all complexes were obtained after three to seven days. Crystals of TB19 (discussed below) grown with HbA incubated and reduced under deoxygenated conditions was also used for data collection.
X-ray diffraction data for the MS2 complex (discussed below) was collected using a Rigaku AFC5R rotating anode diffractometer to a resolution of 4Å. All hk±1 reflections and their Friedel pairs were collected. One crystal, dimensions 0.3 to 1.2 mm was used for collection. Diffraction data for the rest of the complexes were collected with a Rigaku AFC5R rotating anode diffractometer equipped with an R-axis IIC image plate system, all to a resolution of 1.94A. Crystals of linear dimensions 0.2 to 0.5 mm were used. Data reduction, structure solution and calculation of Fourier difference electron-density maps were as described in Wireko et al., Proc. Natl. Acad. Sci. USA, 1991, 88, 2209.
Models of the compounds created with MMOD and minimized with MM2 force field were fitted to the electron-density by using FRODO on an EVANS and SUTHERLAND PS390 graphic station.
X-ray diffraction analyses were used to study several of the new drug complexes including MS1, MS2, TB8, TB10, TB17, TB19, TB32, TB36, TB62, and TB63. The difference electron-density maps of all complexes discussed are that of the HbA tetramer/drug molar ratio of 1:5, except TB17 which is 1:10. All drug molecules contain at least two functionalities, an aldehyde and a carboxylate, common to all of them. […] The only exception was MS2 where only one of the carboxylate oxygens was involved in the salt bridge interaction. The above binding site, which is common to all of the complexes, will be referred to as the α-cleft binding site. Some of the above drug compounds have additional functional groups which are also involved in additional interaction with other HbA residues, including hydrogen bonding, van der Waals interaction, and a second covalent bonding.
All complexes have two molecules of the drug compounds bound at the above-mentioned α-cleft site and are related by the two fold noncrystallographic axis. These sites are further noted as the α1-cleft site (Val-1α1 binding site), and the α2-cleft site (Val-1α2 binding site). In all complexes, the electron density at the α2-cleft site were slightly bigger and better defined than the electron density at the α1-cleft site. In addition to the binding at the α-cleft site, some of the drug compounds also bind to other secondary sites, including other sites in the α-cleft water cavity, the β-cleft water cavity located at Val-1β, and the Hb polymer contact site located near the residues His-116β and His-117β.

whole blood = experiment: Whole-blood studies: effect on the oxygen affinity of whole blood; type: cell-based; details: for P50 D (aver.): heparinized whole blood mixed 1:1 with test compound solution, equilibrated 1 hour at 37° C., P50 C 25.0; for direction of shift of the oxygen equilibrium curve / ΔP50 D: whole blood; for ΔP50 D: 1 hour at 37° C., P50 D - P50 C

Molecule	P50 D (aver.) (human hemoglobin (HbA))	ΔP50 (P50 D - P50 C) (human hemoglobin (HbA))	direction of shift of the oxygen equilibrium curve (human hemoglobin (HbA))	binding sites in HbA seen in the difference electron-density map (HbA)	P50 D (aver.) (whole blood)	direction of shift of the oxygen equilibrium curve (whole blood)	ΔP50 D (whole blood)
2-phenylethyloxy-5-formylbenzoic acid [TB32]	18.0 mm Hg	-2.0 mm Hg	–	–	–	–	–
O=Cc1ccc(O)c(C(=O)O)c1 [MS1, 5-formylsalicyclic acid]	21.0 mm Hg	1.0 mm Hg	–	four binding sites for MS1 in the central water cavity of HbA	–	–	–
O=Cc1ccc(C(=O)O)cc1 [MS2, 4-carboxybenzaldehyde]	21.0 mm Hg	2.0 mm Hg	–	binding exclusively at the two symmetry-related α-cleft sites	–	–	–
O=Cc1ccc(OCc2ccccc2COc2ccc(C=O)cc2C(=O)O)c(C(=O)O)c1 [TB5, α, α'-bis(2-carboxy-4-formylphenoxy)-o-xylene]	31.0 mm Hg	9.5 mm Hg	–	–	–	–	–
CC(=O)Oc1ccc(C=O)cc1C(=O)O [TB8, 5-formylaspirin]	21.0 mm Hg	-1.0 mm Hg	–	binding of TB8 at the two symmetry-related α-cleft sites of Val-1α	–	–	–
O=Cc1ccc(OCc2cccc(COc3ccc(C=O)cc3C(=O)O)c2)c(C(=O)O)c1 [TB10, α,α'bis(2-carboxy-4-formylphenoxy)-m-xylene]	26.0 mm Hg	4.5 mm Hg	–	–	–	–	–
O=Cc1ccc(OCc2ccc(COc3ccc(C=O)cc3C(=O)O)cc2)c(C(=O)O)c1 [TB11, α,α'bis(2-carboxy-4-formylphenoxy)-p-xylene]	24.0 mm Hg	2.5 mm Hg	–	–	–	–	–
O=Cc1ccc(OCc2ccccc2)c(C(=O)O)c1 [TB17, 2-benzyloxy-5-formylbenzoic acid]	–	–	right shift	three molecules of TB17 reacted to the Hb tetramer	14.5 mm Hg	left shift	-9.5 mm Hg
O=Cc1ccc(OCC=CCOc2ccc(C=O)cc2C(=O)O)c(C(=O)O)c1 [TB18, 1,4-bis(2-carboxy-4-formylphenoxy)-2-butene]	40.0 mm Hg	18.0 mm Hg	right shift	–	19.0 mm Hg	left shift	-6.0 mm Hg
O=Cc1ccc(OCc2ccc(C(=O)O)cc2)c(C(=O)O)c1 [TB34, α-(2-carboxy-4-formylphenoxy)-p-toluic acid]	14.0 mm Hg	-6.0 mm Hg	–	–	–	–	–
O=Cc1ccc(OCCCCOc2ccc(C(=O)O)cc2)c(C(=O)O)c1 [TB35]	25 mm Hg	4 mm Hg	–	–	–	–	–

Now from value to molecule, other results behind:

P50 D (aver.) (human hemoglobin (HbA))	ΔP50 (P50 D - P50 C) (human hemoglobin (HbA))	direction of shift of the oxygen equilibrium curve (human hemoglobin (HbA))	Molecule	binding sites in HbA seen in the difference electron-density map (HbA)	P50 D (aver.) (whole blood)	direction of shift of the oxygen equilibrium curve (whole blood)	ΔP50 D (whole blood)
44.0 mm Hg	22.0 mm Hg	–	O=Cc1ccc(OCCCOc2ccc(C=O)cc2C(=O)O)c(C(=O)O)c1 [TB36, 1,3-bis(2-carboxy-4-formylphenoxy)-propane]	binding exclusively at the two symmetry-related α-cleft sites	–	–	–
14.0 mm Hg	-6.0 mm Hg	–	O=Cc1ccc(OC(=O)/C=C/C(=O)Oc2ccc(C=O)cc2C(=O)O)c(C(=O)O)c1 [TB40, bis(2-carboxy-4-formylphenyl)-fumerate]	–	–	–	–
39.0 mm Hg	17.0 mm Hg	–	O=Cc1ccc(OCCCCCCOc2ccc(C=O)cc2C(=O)O)c(C(=O)O)c1 [TB42, 1,6-bis(2-carboxy-4-formylphenoxy)-hexane]	–	–	–	–
16.0 mm Hg	-4.0 mm Hg	–	O=Cc1ccc(OC(=O)c2ccc(C(=O)Oc3ccc(C=O)cc3C(=O)O)cc2)c(C(=O)O)c1 [TB56, bis(2-carboxy-4-formylphenyl)-terephthalate]	–	–	–	–
33.0 mm Hg	11.0 mm Hg	–	O=Cc1ccc(OCCCCCOc2ccc(C=O)cc2C(=O)O)c(C(=O)O)c1 [TB57, 1,5-bis(2-carboxy-4-formylphenoxy)-pentane]	–	–	–	–
37.0 mm Hg	15.0 mm Hg	–	O=Cc1ccc(OCCCCCCCCOc2ccc(C=O)cc2C(=O)O)c(C(=O)O)c1 [TB58, 1,8-bis(2-carboxy-4-formylphenoxy)-octane]	–	–	–	–
51.0 mm Hg	29.0 mm Hg	–	O=Cc1ccc(OCOc2ccc(C=O)cc2C(=O)O)c(C(=O)O)c1 [TB62/45, bis(2-carboxy-4-formylphenoxy)-methane]	binding exclusively at the two symmetry-related α-cleft sites	–	–	–
46.0 mm Hg	24.0 mm Hg	–	O=Cc1ccc(OCCOc2ccc(C=O)cc2C(=O)O)c(C(=O)O)c1 [TB63/41, 1,2-Bis(2-Carboxy-4-formylphenoxy)-ethane]	binding exclusively at the two symmetry-related α-cleft sites	–	–	–
30.0 mm Hg	8.0 mm Hg	–	CC(CCCOc1ccc(C=O)cc1C(=O)O)Oc1ccc(C=O)cc1C(=O)O (centres unmarked) [TB72, 1,4-bis(2-carboxy-4-formylphenoxy)-pentane]	–	–	–	–
33.0 mm Hg	11.0 mm Hg	–	O=Cc1ccc(OCCCCCCCCCCOc2ccc(C=O)cc2C(=O)O)c(C(=O)O)c1 [TB73, 1,10-bis(2-carboxy-4-formylphenoxy)-decane]	–	–	–	–
19.5 mm Hg	-1.5 mm Hg	–	O=Cc1ccc(OC(=O)C(=O)Oc2ccc(C=O)cc2C(=O)O)c(C(=O)O)c1 [TB77, bis(2-carboxy-4-formylphenyl)-oxalate]	–	–	–	–
14.5 mm Hg	-5.5 mm Hg	–	O=Cc1ccc(OC(=O)CCC(=O)Oc2ccc(C=O)cc2C(=O)O)c(C(=O)O)c1 [TB80, bis(2-carboxy-4-formylphenyl)-succinate]	–	–	–	–
